# Assays:
# [1] = up to 120 mg/day; cited from earlier work
# DBH [2] = molecular target: T1, DBH (Rattus norvegicus, UniProt Q05754); settings: cited from earlier work; for blood-brain barrier crossing, indicated by effect of injections on brain dopamine levels: Antabuse 100 mg/kg, Nepicastat 50 mg/kg, intraperitoneal
# T1 construct: In rat studies, Antabuse (100 mg/kg) and Nepicastat (50 mg/kg) were injected intraperitoneally; host or cells: rat, in vivo (endogenous enzyme)
# T1 sequence (Q05754 1-620): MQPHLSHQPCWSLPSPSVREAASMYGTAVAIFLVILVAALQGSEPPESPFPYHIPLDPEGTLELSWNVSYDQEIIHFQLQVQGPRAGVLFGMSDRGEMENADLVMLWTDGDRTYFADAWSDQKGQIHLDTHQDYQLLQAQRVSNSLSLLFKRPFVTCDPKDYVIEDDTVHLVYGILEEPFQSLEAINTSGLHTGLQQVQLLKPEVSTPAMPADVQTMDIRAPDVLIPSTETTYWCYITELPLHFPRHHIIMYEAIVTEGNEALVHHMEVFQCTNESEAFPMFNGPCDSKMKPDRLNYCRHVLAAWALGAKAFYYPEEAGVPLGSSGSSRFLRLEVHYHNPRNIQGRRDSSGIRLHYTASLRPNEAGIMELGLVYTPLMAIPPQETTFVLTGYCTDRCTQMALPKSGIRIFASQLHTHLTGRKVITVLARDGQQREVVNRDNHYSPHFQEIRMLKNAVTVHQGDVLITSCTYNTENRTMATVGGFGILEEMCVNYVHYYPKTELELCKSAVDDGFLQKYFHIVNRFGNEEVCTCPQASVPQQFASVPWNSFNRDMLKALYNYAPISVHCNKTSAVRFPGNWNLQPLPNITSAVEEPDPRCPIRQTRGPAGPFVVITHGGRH
# DBH [3] = settings: in vivo; cited from earlier work
# D1R = experiment: light-stimulated dopamine release from LC axons, fEPSP in CA1 of hippocampal slices; type: cell-based; settings: 10 uM, n=4, Schaffer collateral stimulation
# From the text: The chemogenetic approach allows the acute memory deficits produced by graded decrease in LC function to be measured. This model then provides a rigorous and rapid screening method to determine whether the resulting memory deficits can be reversed by agents that enhance dopamine release (with or without noradrenaline stimulants). Results in FIG. 2 document the role of LC axons in producing functionally important dopamine release. The experiments were done in CA1 using synaptic stimulation of Schaffer collaterals to measure synaptic strength. FIG. 2, left: brief light stimulation of the hippocampus (arrow) produces a long-lasting enhancement of the fEPSP (normalized increase in charge) (n=5). This light-stimulated release of dopamine replicates the effect of direct application of dopamine (Huang and Kandel, 1995). […] Stimulation protocol: three sets of ˜18 Hz stimulation (5 msec light pulses)=a total of 60 pulses/set; 1 minute between sets. The LC was injected in vivo with AAV virus that produced channel-rhodopsin in cells containing tyrosine hydroxylase, an enzyme in the dopamine and noradrenaline synthesis pathway (see FIG. 1). The selective expression in noradrenergic cells in the LC is due to Cre expression driven by a tyrosine hydroxylase promoter. […] The response of CA1 pyramidal cells was measured by the field EPSP (fEPSP). […]
# LC = experiment: event arena memory test in KORD mice with the LC inhibited by SALB; type: in vivo; settings: SALB subcutaneously 10 minutes before encoding trial
# [4] = IP, suspension in sterile saline
compound,measurement,setting,value
"NCc1c[nH]c(=S)n1[C@H]1CCc2c(F)cc(F)cc2C1 [Nepicastat, 5-(aminomethyl)-1-[(2S)-5,7-difluoro-1,2,3,4-tetrahydronaphthalen-2-yl]-1,3-dihydro-2H-imidazole-2-thione]",tolerability,[1],well tolerated
same,"blood-brain barrier crossing, indicated by effect of injections on brain dopamine levels",DBH [2],cross the blood-brain barrier
same,dose reported to match the 100 mg/kg dose of Antabuse on DBH,DBH [2]; IP,50 mg/kg
same,effect on dopamine concentration and/or dopamine release,DBH [3],increase the concentration of dopamine and/or increase dopamine release
"CCN(CC)C(=S)SSC(=S)N(CC)CC [Disulfiram, 1,1′,1″,1′″-[disulfanediylbis(carbonothioylnitrilo)]tetraethane]","blood-brain barrier crossing, indicated by effect of injections on brain dopamine levels",DBH [2],cross the blood-brain barrier
same,highest effective dose that didn't affect operant responses,DBH [2]; [4],100 mg/kg
same,lowest effective concentration,DBH [2]; [4],10 mg/kg
same,effect on dopamine concentration and/or dopamine release,DBH [3],increase the concentration of dopamine and/or increase dopamine release
CN1CCc2cc(Cl)c(O)cc2[C@H]2c3ccccc3CC[C@@H]21 [SCH39166],enhancement of the fEPSP by light stimulation of LC axons in the presence of the antagonist,D1R,no enhancement
"COC(=O)[C@@H]1C[C@H](O)C(=O)[C@H]2[C@@]1(C)CC[C@H]1C(=O)O[C@H](c3ccoc3)C[C@]21C [SALB, salvinorin B]",24 hr memory,LC,strongly reduce

# From patent US10821097B2, “DBH inhibitors for treating or preventing memory loss” (Brandeis University, priority 2015, dated 2020)
